US9527847B2, “Treatment of lupus, fibrotic conditions, and inflammatory myopathies and other disorders using PI3 kinase inhibitors” (INFINITY PHARMACEUTICALS, INC., priority 2012, dated 2016)
“Also recorded” adds a separate entry of the source.

Tests used:
[1] = test system: female C.B-17 SCID mice injected with CD45RBhigh cells; assay: CD4+ Inflammatory Bowel Disease (IBD) model in SCID mice; type: in vivo, mouse
Description: In this murine model, female C.B-17 SCID mice are injected intraperitoneally (IP) with CD45RB^high cells, a subset of CD4^+ T cells obtained from normal BALB/c mice, to induce spontaneous chronic inflammation in the large intestine. Gross and histopathologic changes resulting from this treatment resemble those occurring in Crohn's disease and ulcerative colitis in humans.
On study day 0, Balb/C mice were terminated, and spleens were obtained for CD45RB^high cell isolation per the SCID IBD cell separation protocol. SCID mice were weighed and received intraperitoneal (IP) injections of the sorted cells (approx. 4×10^6 cells/ml, 100 μl/mouse injections). On study day 21, mice were weighed and randomized by body weight loss into treatment groups, and daily (QD), oral (PO) dosing was initiated. Dosing continued through study day 41, and mice were terminated on day 42.
For each animal, the entire colon (proximal and distal) was trimmed into 8 equally spaced pieces for processing and embedding. Sections were stained with hemotoxylin and eosin (H&E). For each H&E stained section, submucosal edema was quantitated by measuring the distance from the muscularis mucosa to the internal border of the outer muscle layer in a non tangential area thought to most represent the severity of this change. Mucosal thickness was also measured in a non-tangential area of the section that best represented the overall mucosal thickness. This parameter is indicative of gland elongation and mucosal hyperplasia.
Parameters that were scored using percent involvement included: (1) Colon glandular epithelial loss—this includes crypt epithelial as well as remaining gland epithelial loss; and (2) Colon Erosion—this reflects loss of surface epithelium and generally is associated with mucosal hemorrhage (reflective of the bleeding seen clinically and at necropsy).
The 4 important scored parameters (inflammation, glandular epithelial loss, erosion, hyperplasia) were ultimately summed to arrive at a sum of histopathology scores, which indicates the overall damage and would have a maximum score of 20.
Inflammatory cell infiltrates in the colonic mucosa were evaluated for approximate % of neutrophils in the total infiltrate using the criteria below.
This value was then multiplied by the inflammation score in an attempt to semiquantify relative PMN infiltration across sections and animals.

[2] = test system: TLR9 (CPG-A induced cytokines); assay: CPG-A induced cytokine production in PBMCs; type: cell-based, human
Description: Human PBMCs were stimulated with CPG-A. CPG-A selectively activates PDCs, inducing IFN-α production via TLR9. IFN-α is a PDC cell selective readout. Primary human PBMCs from two normal human donors were used as a source of PDC cells. 200 K cells per well were used. […] Then the cells were treated with the specified concentration of CPG-A for 16 hours. RPMI-5% serum was employed.
These experiments were conducted using PBMCs.

C[C@H](Nc1ncnc2[nH]cnc12)c1cc2cccc(Cl)c2c(=O)n1-c1ccccc1 [Compound 292]
Colon hyperplasia reduction ([1]; 1 mg/kg PO QD, total colon): 32% | Mucosal thickness reduction ([1]; 1 mg/kg PO QD, total colon): 31% | Colon weight reduction toward normal ([1]; 1 mg/kg PO QD, vs vehicle): 34% | Colon inflammation reduction ([1]; 3 mg/kg PO QD, distal colon): 42% | Gland loss reduction ([1]; 3 mg/kg PO QD, distal colon): 52% | Hyperplasia reduction ([1]; 3 mg/kg PO QD, distal colon): 61% | Mucosal thickness reduction ([1]; 3 mg/kg PO QD, distal colon): 64% | Neutrophil score reduction ([1]; 3 mg/kg PO QD, distal colon): 66% | PMN percent reduction ([1]; 3 mg/kg PO QD, distal colon): 56% | Summed histopathology score reduction ([1]; 3 mg/kg PO QD, distal colon): 52% | Colon inflammation reduction ([1]; 3 mg/kg PO QD, proximal colon): 19% | Gland loss reduction ([1]; 3 mg/kg PO QD, proximal colon): 24% | Hyperplasia reduction ([1]; 3 mg/kg PO QD, proximal colon): 37% | Mucosal thickness reduction ([1]; 3 mg/kg PO QD, proximal colon): 36% | Neutrophils score reduction ([1]; 3 mg/kg PO QD, proximal colon): 43% | PMN percent reduction ([1]; 3 mg/kg PO QD, proximal colon): 39% | Summed histopathology score reduction ([1]; 3 mg/kg PO QD, proximal colon): 28% | Colon hyperplasia reduction ([1]; 3 mg/kg PO QD, total colon): 49% | Colon inflammation reduction ([1]; 3 mg/kg PO QD, total colon): 30% | Gland loss reduction ([1]; 3 mg/kg PO QD, total colon): 38% | Mucosal thickness reduction ([1]; 3 mg/kg PO QD, total colon): 51% | Neutrophil score reduction ([1]; 3 mg/kg PO QD, total colon): 54% | PMN percent reduction ([1]; 3 mg/kg PO QD, total colon): 47% | Summed histopathology score reduction ([1]; 3 mg/kg PO QD, total colon): 40% | Colon weight reduction toward normal ([1]; 3 mg/kg PO QD, vs vehicle): 50% | Colon inflammation reduction ([1]; 10 mg/kg PO QD, distal colon): 28% | Colon mucosal thickness reduction ([1]; 10 mg/kg PO QD, distal colon): 46% | Gland loss reduction ([1]; 10 mg/kg PO QD, distal colon): 39% | Hyperplasia reduction ([1]; 10 mg/kg PO QD, distal colon): 46% | Summed histopathology score reduction ([1]; 10 mg/kg PO QD, distal colon): 38% | Colon edema reduction ([1]; 10 mg/kg PO QD, proximal colon): 68% | Colon inflammation reduction ([1]; 10 mg/kg PO QD, proximal colon): 17% | Erosion reduction ([1]; 10 mg/kg PO QD, proximal colon): 94% | Gland loss reduction ([1]; 10 mg/kg PO QD, proximal colon): 26% | Hyperplasia reduction ([1]; 10 mg/kg PO QD, proximal colon): 45% | Mucosal thickness reduction ([1]; 10 mg/kg PO QD, proximal colon): 43% | Neutrophil score reduction ([1]; 10 mg/kg PO QD, proximal colon): 45% | PMN percent reduction ([1]; 10 mg/kg PO QD, proximal colon): 37% | Summed histopathology score reduction ([1]; 10 mg/kg PO QD, proximal colon): 31% | Absolute body weight ([1]; 10 mg/kg PO QD, significant days 27-31, 35, 39, vs vehicle): significantly (by ANOVA) increased | Colon edema reduction ([1]; 10 mg/kg PO QD, total colon): 60% | Colon hyperplasia reduction ([1]; 10 mg/kg PO QD, total colon): 46% | Colon inflammation reduction ([1]; 10 mg/kg PO QD, total colon): 24% | Gland loss reduction ([1]; 10 mg/kg PO QD, total colon): 33% | Mucosal thickness reduction ([1]; 10 mg/kg PO QD, total colon): 45% | Neutrophil score reduction ([1]; 10 mg/kg PO QD, total colon): 44% | PMN percent reduction ([1]; 10 mg/kg PO QD, total colon): 37% | Summed histopathology score reduction ([1]; 10 mg/kg PO QD, total colon): 35% | Colon weight reduction toward normal ([1]; 10 mg/kg PO QD, vs vehicle): 51% | CPG-A induced IFN-α production [2]: potently inhibited; also recorded: blocked | CPG-A induced IL-6 production [2]: Inhibited | CPG-A induced IL-8 production [2]: Inhibited | CPG-A induced TNF-α production [2]: Inhibited
